SMILES strings stand for the structures.

Holding throughout (assay type): binding
In one test the target is MGLL (Homo sapiens (Human), UniProt Q99685, K36A/L169S/L176S). The experiment in a line: MGLL compound modification assay (intact protein LC-MS). The following applies: at 4 hours; compound concentration of 3 μM. The method, then: Test compounds were prepared as 10 mM stock solutions in DMSO (Fisher cat #BP231-100). Human recombinant MGLL protein 1-303 containing K36A, L169S, L176S amino acid substitutions were produced at in house. On the day of the assay, MGLL protein was diluted to 2 μM in assay buffer (20 mM Hepes, pH 7.5, 150 mM NaCl, 1 mM MgCl2, 1 mM DTT). For testing MGLL modification, compounds were diluted to 50× final test concentration in DMSO in 96-well storage plates. […] of the diluted 50× compounds were added to appropriate wells in the PCR plate (Fisher cat #AB-0800). 49 μL of the stock protein solution was added to each well of the 96-well PCR plate to form a mixture. The plate was sealed well with aluminum plate seal and stored in a drawer at room temperature. […]
Chain of MGLL (Q99685 whole entry K36A/L169S/L176S): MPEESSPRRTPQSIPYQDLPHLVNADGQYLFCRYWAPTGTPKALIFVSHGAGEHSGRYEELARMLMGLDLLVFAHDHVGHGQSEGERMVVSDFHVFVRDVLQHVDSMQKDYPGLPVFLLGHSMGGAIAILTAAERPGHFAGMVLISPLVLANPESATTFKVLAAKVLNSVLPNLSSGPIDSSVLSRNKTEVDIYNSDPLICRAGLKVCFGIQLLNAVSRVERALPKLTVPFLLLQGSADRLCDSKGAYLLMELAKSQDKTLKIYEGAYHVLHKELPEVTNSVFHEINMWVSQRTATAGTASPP
The extent of covalent modification of MGLL proteins was determined by liquid chromatography electrospray mass spectrometry analysis of the intact proteins using a Thermo Q-Exactive Plus mass spectrometer. […] The recorded protein mass spectrum was deconvoluted from the raw data file using Protein Deconvolution v4.0 (Thermo). […]
Certain compounds disclosed herein are expected to covalently modify MGLL protein when assessed using the assay described above by at least 1%, such as by at least 5%, 10%, 20%, 30%, 40%, or at least 50%.

For another test, the target named is BTK C481S protein (Homo sapiens (Human), UniProt Q06187, C481S). The experiment in a line: BTK C481S HTRF displacement assay. The following applies: 1-hour incubation. Put shortly: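 N-terminal GST-tagged BTK C481S (2-659) incubated 1 hour at room temperature with compound (6 doses, four-fold from 5 μM), 50 nM kinase tracer 239 and anti-GST-Tb antibody. TR-FRET 665/620 ratio, background-subtracted; IC50 from constrained four-parameter fit. KI=IC50/(1+[Tracer]/Kd), tracer Kd 54 nM.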
Chain of BTK C481S protein (Q06187 2-659 C481S): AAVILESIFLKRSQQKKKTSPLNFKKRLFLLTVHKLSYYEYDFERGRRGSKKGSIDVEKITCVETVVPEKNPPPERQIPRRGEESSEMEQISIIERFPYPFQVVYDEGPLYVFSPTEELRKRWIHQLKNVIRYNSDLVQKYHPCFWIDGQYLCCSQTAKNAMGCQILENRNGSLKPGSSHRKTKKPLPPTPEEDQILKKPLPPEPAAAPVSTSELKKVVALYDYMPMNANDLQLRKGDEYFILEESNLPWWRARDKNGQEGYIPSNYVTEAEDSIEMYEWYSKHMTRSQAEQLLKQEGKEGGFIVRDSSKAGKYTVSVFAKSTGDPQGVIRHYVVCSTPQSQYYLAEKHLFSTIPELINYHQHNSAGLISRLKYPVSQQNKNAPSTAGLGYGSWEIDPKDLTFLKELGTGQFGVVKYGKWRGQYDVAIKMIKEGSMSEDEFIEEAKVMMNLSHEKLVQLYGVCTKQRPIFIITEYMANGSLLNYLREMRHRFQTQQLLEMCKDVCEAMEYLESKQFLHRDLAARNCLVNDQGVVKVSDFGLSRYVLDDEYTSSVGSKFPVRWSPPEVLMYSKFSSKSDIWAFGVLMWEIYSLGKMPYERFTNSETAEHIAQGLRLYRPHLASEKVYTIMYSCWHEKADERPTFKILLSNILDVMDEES

Another test addresses BTK wildtype protein (Homo sapiens (Human), UniProt Q06187). Kind of test: BTK wildtype HTRF displacement assay. Conditions: 1-hour incubation; read-out: BTK (wt) IC50. In short, it runs like this: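 Full-length N-terminal GST-tagged BTK incubated 1 h at room temperature with compound (6 doses, four-fold dilutions from 5 μM top) plus kinase tracer 239 and anti-GST-Tb antibody. Tracer displacement read as TR-FRET 665/620 ratio, background-subtracted using no-protein control. IC50 from four-parameter fit constrained 0–100% inhibition.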

Chain of BTK wildtype protein (Q06187 2-659): as the sequence (Q06187 2-659 C481S) above, with S480C counted along it

For `CN(C(=O)n1cncn1)C1CCC(n2nc(-c3ccc(Oc4ccccc4)cc3)c3c(N)ncnc32)CC1` (stereo not drawn) [Compound 133, N-(4-(4-amino-3-(4-phenoxyphenyl)-1H-pyrazolo[3,4-d]pyrimidin-1-yl)cyclohexyl)-N-methyl-1H-1,2,4-triazole-1-carboxamide], at MGLL, the “% MGLL protein modification” value is recorded as “over 50%”. The IC50 on BTK C481S protein and on BTK wildtype protein was ≤ 1000 nM in each case.
